These results are taken from PubChem BioAssay (NCI).

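The compound was tested at five concentrations on cells cultured in 96-well plates, with a 48-hour exposure period. TGI denotes the concentration required for complete inhibition of growth.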

Assay in all cases: inhibition of tumour cell growth, NCI panel, 48 h
Assay [1] has as its system 786-0 renal.
Assay [2] deals with A549 NSCLC.
In assay [3] the test system is BT-549 breast.
The subject of assay [4] is CAKI-1 renal.
In assay [5] the test system is HOP-92 NSCLC.
Assay [6] has as its system HT29 colon.
Assay [7] relates to IGROV1 ovarian.
The test system of assay [8] is MALME-3M melanoma.
Assay [9] has as its system NCI-H23 lung.
In assay [10] the test system is SF-268 CNS.
In assay [11] the test system is SW-620 colon.
The test system of assay [12] is T-47D breast.
Assay [13] concerns UACC-257 melanoma.
Assay [14] has as its system UACC-62 melanoma.
The test system of assay [15] is UO-31 renal.
The test system of assay [16] is DU-145 prostate.
Assay [17] has as its system HCC-2998 colon.

As to `O=C(O)C12CCC(CC1=O)C2` (stereo not drawn), the TGI in assay [1], in assay [2], in assay [3], in assay [4], in assay [5] and in assay [6] was over 100 µM each time. Further, the TGI in assay [7], in assay [8], in [9], in assay [10], in [11] and in assay [12] was over 100 µM each time. For the same molecule, the TGI in [13], in assay [14] and in assay [15] was over 100 µM throughout.
As to `COC(=O)Cn1c(=O)oc2nc(-c3ccccc3)cc(C(F)(F)F)c21`, the TGI in [1], in [2], in [3], in assay [4], in [16] and in [17] was over 100 µM each time. The TGI in assay [5] is 89.3 µM; in assay [6], over 100 µM; in assay [7], over 100 µM; in [9], over 100 µM; in [10], over 100 µM; in assay [11] it was over 100 µM. For the same molecule, the TGI in assay [12], in [13], in assay [14] and in [15] was over 100 µM throughout.
`Nc1cc(Cl)ccc1SSc1ccc(Cl)cc1N`: the TGI was 25.9 µM in [1]; over 100 µM in assay [2]; 35.1 µM in assay [3]; 35.7 µM in assay [4]; 29.2 µM in assay [16]; over 100 µM in assay [5]. Also, the TGI is 42.3 µM in [6]; 25.5 µM in assay [7]; 36.3 µM in assay [8]; 20.4 µM in [9]; 83.5 µM in assay [10]; 15 µM in assay [11]. The TGI in [12] was determined as 45.4 µM; in [13], 41.5 µM; in assay [14] it was 12.7 µM; in [15], 22.1 µM.
Turning to `COc1cc(C2OC[C@@H]3C(=O)OC[C@H]23)cc(O)c1OC` (stereo partly drawn), the TGI in assay [1], in assay [2], in assay [3], in assay [4], in assay [16] and in assay [17] was over 100 µM in each case. Also, the TGI in [5], in assay [6], in [7], in [9], in assay [10] and in [11] was over 100 µM each time. The TGI in [12], in assay [13], in assay [14] and in assay [15] was over 100 µM in each case.
`C=CCCCC1(C)CCNC1=S` (stereo not drawn): the TGI in assay [1], in assay [2], in [3], in assay [4], in assay [16] and in [17] was over 100 µM in each case. The TGI in assay [5], in assay [6], in assay [7], in [9], in assay [10] and in assay [11] was over 100 µM throughout. Also, the TGI in assay [12], in [13], in assay [14] and in assay [15] was over 100 µM in each case.
For `C/C=C\C(CC(=O)OC)CC(=O)N(CCC1CN(S(=O)(=O)C(F)(F)F)c2ccccc21)Cc1ccc(OC)cc1OC` (stereo not drawn), the TGI in [1], in [2], in [3], in assay [4], in assay [17] and in assay [5] was over 100 µM in each case. In addition, the TGI in assay [7], in assay [8], in assay [9], in assay [10], in assay [11] and in assay [12] was over 100 µM each time. Besides, the TGI in [13] and in assay [15] was over 100 µM each time.
Consider `NC(=O)CCC(NC(=O)c1c2ccccc2nc2ccccc12)C(=O)O` (stereo not drawn), for which the TGI in assay [1], in assay [2], in assay [3], in assay [4], in [16] and in [17] was over 100 µM in each case. Besides, the TGI in assay [5], in assay [6], in assay [7], in assay [8], in assay [9] and in assay [10] was over 100 µM throughout. For the same molecule, the TGI in assay [11], in assay [13], in assay [14] and in assay [15] was over 100 µM in each case.
As for `S=C1CC(c2ccccc2)Sc2cc(Cl)ccc2N1` (stereo not drawn), the TGI was 17.7 µM in assay [1]; 38.4 µM in [2]; over 100 µM in assay [3]; 29 µM in [4]; over 100 µM in [16]; over 100 µM in [6]. For the same molecule, the TGI in assay [7] is 84.5 µM; in [8] it was 93.6 µM; in assay [9], 22.2 µM; in [10], 24.7 µM; in [12] it was over 100 µM; in assay [13], over 100 µM. Also, the TGI in assay [14] was 44.9 µM; in [15], over 100 µM.
Consider `C=C(Cl)C(C)(Cl)CCC(Cl)C(C)C` (stereo not drawn), for which the TGI in assay [1], in [2], in assay [3], in assay [4], in assay [16] and in assay [17] was over 100 µM each time. Further, the TGI in assay [5], in assay [6], in [7], in assay [8], in assay [9] and in assay [10] was over 100 µM in each case. Besides, the TGI in assay [11], in assay [13], in [14] and in assay [15] was over 100 µM in each case.
`Cc1cc(C)nc(NS(=O)(=O)c2ccc(NC(=O)NC(F)(F)F)cc2)n1`: the TGI in [1] was over 100 µM; in assay [2], over 100 µM; in assay [3], over 100 µM; in assay [4], 72.8 µM; in assay [17], over 100 µM; in assay [6], over 100 µM. Further, the TGI in [7], in [9], in assay [10], in assay [11], in assay [12] and in assay [13] was over 100 µM throughout. Also, in assay [15], the TGI was over 100 µM.
For `C[N+]12C=CC=C1C(N1CCCC1)c1scc(-c3ccc(F)cc3)c12` (stereo not drawn), the TGI is over 100 µM in assay [1]; over 100 µM in assay [2]; 88 µM in assay [3]; over 100 µM in assay [4]; over 100 µM in [16]; 45.3 µM in assay [6]. Further, the TGI in assay [7] is 36.1 µM; in assay [8], over 100 µM; in [10] it was over 100 µM; in assay [11], over 100 µM; in assay [12], 80.5 µM; in [14], over 100 µM. The same molecule showed a TGI in assay [15] of over 100 µM.
Turning to `Cc1cn(C2CCN(CC3COC(C)(C)O3)O2)c(=O)[nH]c1=O` (stereo not drawn), the TGI in assay [1], in assay [2], in assay [3], in assay [4], in assay [16] and in assay [5] was over 100 µM throughout. Moreover, the TGI in assay [6], in [7], in [8], in [9], in assay [10] and in assay [11] was over 100 µM in each case. Besides, the TGI in [12], in [13], in [14] and in [15] was over 100 µM in each case.
Regarding `COC(=O)[C@]12CSC[C@H]1C[C@H](c1cccc3ccccc13)N2`, the TGI in assay [1], in assay [2], in assay [3], in [4], in assay [16] and in assay [17] was over 100 µM each time. Also, the TGI in [5], in assay [7], in assay [9], in [11], in assay [12] and in assay [13] was over 100 µM in each case. Moreover, the TGI in assay [14] and in [15] was over 100 µM in each case.
Turning to `CCOC(=O)C(NC(=O)CC)(Nc1ccc(F)cc1F)C(F)(F)F` (stereo not drawn), the TGI in [1], in assay [2], in assay [3], in assay [17], in assay [6] and in assay [7] was over 100 µM throughout. Besides, the TGI in assay [9], in assay [10], in [11], in assay [12], in assay [13] and in [15] was over 100 µM throughout.
As for `Cc1ccc(C(=O)Oc2ccc(/C=C3\CCC/C(=C\c4ccc(OC(=O)c5ccc(C)cc5)cc4)C3=O)cc2)cc1`, the TGI in [1], in [2], in assay [3], in [4], in assay [16] and in [17] was over 100 µM in each case. The TGI in [5], in assay [6], in assay [7], in assay [9], in assay [10] and in assay [11] was over 100 µM throughout. The TGI in assay [12], in assay [13], in assay [14] and in [15] was over 100 µM each time.
Take `O=S(=O)(CCC[C@H]1[C@@H](CCOCc2ccccc2)C2CCCN1O2)c1ccccc1` (stereo partly drawn): the TGI in assay [1], in [2], in [3], in [4], in assay [17] and in assay [5] was over 100 µM throughout. The TGI in assay [6], in [7], in assay [8], in assay [9], in assay [10] and in assay [11] was over 100 µM throughout. The TGI in [12], in assay [13], in [14] and in assay [15] was over 100 µM each time.
On to `COc1cc(C2c3cc4c(cc3OC(NCCO)C2C)OCO4)cc(OC)c1O` (stereo not drawn), for which the TGI in assay [1] is over 100 µM; in assay [2], over 100 µM; in [3], over 100 µM; in [4] it was over 100 µM; in [17], 21.8 µM; in assay [5], over 100 µM. In addition, the TGI in assay [6], in assay [7], in assay [8], in assay [9], in assay [10] and in [11] was over 100 µM each time. Also, the TGI in [12], in assay [14] and in assay [15] was over 100 µM in each case.
For the molecule `CCOC(=O)N/N=C(\CC)OCC`, the TGI in assay [1], in assay [2], in assay [3], in assay [4], in assay [16] and in assay [17] was over 100 µM each time. Besides, the TGI in assay [7], in assay [8], in [10], in assay [12], in assay [13] and in assay [14] was over 100 µM in each case. In assay [15], this molecule showed a TGI of over 100 µM.
With `Cc1ccc(C(=O)N/N=C(\N=Nc2ccccc2Cl)c2ccc(N(C)C)cc2)cc1`, the TGI in assay [1] is over 100 µM; in assay [2], over 100 µM; in [3] it was 97.1 µM; in assay [4], 75.4 µM; in assay [16], 70.6 µM; in [17], over 100 µM. For the same molecule, the TGI in assay [5], in [6], in assay [7], in assay [9], in [10] and in [11] was over 100 µM in each case. The TGI in assay [12] was 24.5 µM; in assay [13], over 100 µM; in assay [14], 17.8 µM; in assay [15] it was over 100 µM.
